Results as given in patent publication US20060252030A1, “Fabrication of carbohydrate chips by immobilizing unmodified carbohydrates on derivatized solid surfaces, and their uses” (priority 2005, published 2006).

Legend:
[1] = molecular target: ConA (Canavalia ensiformis, UniProt P02866); assay: Carbohydrate chip incubated with FITC-ConA, fluorescence scanner; format: binding; settings: carbohydrate on aminooxy or hydrazide chip, FIG. 5(c)
Method: (§1) A solution (0.1 μl˜1 nl) of carbohydrates including mono-, di-, oligo- and polysaccharides in PBS buffer (pH 4.0-5.0) containing 30-50% glycerol is printed on the above-mentioned chip base by using a micropipette or microarrayer. In this process, the concentration of carbohydrates is preferably between 0.1 mM and 50 mM. After completion of printing, the chip is reacted at 40-60° C. for 8 hours or more, and then washed. Then, the chip is immersed in PBS buffer (pH 7.4) containing 0.1% Tween 20 and 1% BSA (bovine serum albumin) for 1 hour. The fabrication of carbohydrate chips is complete by washing the BSA-treated chip with buffer (pH 7.4) containing 0.1% Tween 20 three times for 15 minutes.
(§2) The fabricated carbohydrate chips are applied for studies on protein-carbohydrate interactions. For these studies, the carbohydrate chips are incubated with non-labeled or fluorophore-labeled proteins in buffer containing 0.1% Tween 20 for 1 hour. Proteins labeled by fluorescent dyes such as Cy3, Cy5 and FITC are commercially available, or can be prepared by reacting proteins with fluorescent dyes. Then, the protein-treated chips are washed with buffer containing 0.1% Tween 20 three times for 10 minutes in order to remove unbound proteins.
Carbohydrate chips are used for the rapid assessment of carbohydrate-protein interactions, which are involve in various biological processes and are of importance for the development of novel therapeutics, and for the fast diagnosis of carbohydrate-based diseases such as tumors and pathogens. For this purpose, each solution (sodium phosphate buffer containing 30% glycerol, pH 5.0) of twenty one of mono-, di-, oligo- and polysaccharides listed in Table 1 was printed on the solid support coated by aminooxy or hydrazide groups. […] According to the fluorescence intensity of the spots in chips after detecting with a fluorescence scanner, TV strongly is bound to N,N′-diacetylchitobiose (13), less strongly to GlcNAc (2) and sialyl Le^x (19), and weakly bound to GalNAc (5), LacNAc (15) and NeuNAcLacNAc (18) [see FIG. 5(a)].

[2] = system: Triticum vulgaris (Cy3-TV, also known as wheat germ agglutinin); assay: Carbohydrate chip incubated with Cy3-TV, fluorescence scanner; format: binding; settings: carbohydrate on aminooxy or hydrazide chip, FIG. 5(a)
Method: as §1, §2
(§3) Carbohydrate chips are used for the rapid assessment of carbohydrate-protein interactions, which are involve in various biological processes and are of importance for the development of novel therapeutics, and for the fast diagnosis of carbohydrate-based diseases such as tumors and pathogens. For this purpose, each solution (sodium phosphate buffer containing 30% glycerol, pH 5.0) of twenty one of mono-, di-, oligo- and polysaccharides listed in Table 1 was printed on the solid support coated by aminooxy or hydrazide groups. The carbohydrate chips prepared from the method described in Example 3 were incubated with Cy3-TV, Cy5-AA and FITC-ConA. According to the fluorescence intensity of the spots in chips after detecting with a fluorescence scanner, TV strongly is bound to N,N′-diacetylchitobiose (13), less strongly to GlcNAc (2) and sialyl Le^x (19), and weakly bound to GalNAc (5), LacNAc (15) and NeuNAcLacNAc (18) [see FIG. 5(a)].

[3] = molecular target: T1, Aleuria aurantia (Cy5-AA) lectin (Aleuria aurantia, UniProt P18891); assay: Carbohydrate chip incubated with Cy5-AA, fluorescence scanner; format: binding; settings: carbohydrate on aminooxy or hydrazide chip, FIG. 5(b)
T1 sequence (P18891 1-313): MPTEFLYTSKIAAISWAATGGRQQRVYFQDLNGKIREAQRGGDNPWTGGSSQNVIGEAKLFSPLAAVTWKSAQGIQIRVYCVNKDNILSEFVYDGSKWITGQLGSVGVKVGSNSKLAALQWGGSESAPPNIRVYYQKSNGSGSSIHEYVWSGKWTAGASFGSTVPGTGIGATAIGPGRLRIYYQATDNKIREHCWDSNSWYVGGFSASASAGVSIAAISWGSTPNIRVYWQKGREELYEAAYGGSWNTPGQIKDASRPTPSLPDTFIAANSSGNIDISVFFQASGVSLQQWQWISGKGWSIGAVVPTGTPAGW
Method: as §1, §2, §3

[4] = system: anti-sialyl Le^x antibody; assay: Carbohydrate chip incubated with anti-sialyl Le^x antibody, fluorescence image; format: binding; settings: FIG. 5(d)
Method: as §1, §2
Sialyl Le^x is an important biological recognition marker and an interesting target for drug discovery. […]

[5] = system: E. coli ORN178, expressing mannose-binding adhesin on pili; assay: Carbohydrate chip probed with E. coli pre-incubated with propidium iodide; settings: FIG. 5(e)
Method: FIG. 5 is a fluorescent image of carbohydrate chips composed of 21 carbohydrates probed with (a) Cy3-TV, (b) Cy5-AA, (c) FITC-ConA, (d) anti-Sialyl Le^x antibody and (e) E. Coli pre-incubated with propidium iodide (PI).
Many bacteria including pathogens express specific carbohydrate-binding proteins on pili. The initial attachment of pathogens to host cells through specific carbohydrate-protein interactions confers pathogenic properties. For example, a mannose-binding protein of type 1 fimbriated E. coli is known to cause common urinary tract infection through its binding to glycans on host cells (Connell, H. et al., Proc. Natl. Acad. Sci. USA 1996, 93, 9827). Thus, carbohydrate chips were also used to detect pathogens for diagnosis. E. coli ORN178, expressing mannose-binding adhesin on pili, binds to spots containing mannose, mannobiose and mannan [see FIG. 5(e)].

In the case of `OC[C@H]1O[C@H](O[C@H]2[C@H](O)[C@@H](O)C(O)O[C@@H]2CO)[C@H](O)[C@@H](O)[C@@H]1O` (mixture of isomers) [compound 11, Maltose], the “binding of ConA to immobilized carbohydrate (fluorescence intensity of the spots)” value (shortened to “binding of ConA”) [1] is reported as “very weak binding”.

`CC(=O)N[C@H]1C(O)O[C@H](CO)[C@@H](O)[C@@H]1O` (stereo partly shown) [compound 2, N-acetylglucosamine] was tested, and the “binding of TV to immobilized carbohydrate (fluorescence intensity of the spots)” value (“binding of TV” for short) [2] was “less strongly”.

With `CC(=O)N[C@H]1C(O)O[C@H](CO)[C@H](O)[C@@H]1O` (stereo partly shown) [compound 5, N-acetylgalactosamine] the “binding of TV” value [2] was “weakly bound”.

In the case of `C[C@H](O)[C@@H](O)[C@@H](O)[C@H](O)C=O` [compound 8, fucose], the “binding of AA to immobilized carbohydrate (fluorescence intensity of the spots)” value (“binding of AA” for short) [3] is reported as “strongly bound”.

For `CC(=O)N[C@H]1[C@H](O[C@H]2[C@H](O)[C@@H](NC(C)=O)C(O)O[C@@H]2CO)O[C@H](CO)[C@@H](O)[C@@H]1O` (stereo partly shown) [compound 13, N,N′-diacetylchitobiose], the “binding of TV” value [2] was “strongly”.

For `C[C@@H]1O[C@@H](O[C@H]2[C@H](O[C@@H]3O[C@H](CO)[C@H](O)[C@H](O)[C@H]3O)[C@@H](CO)OC(O)[C@@H]2O)[C@@H](O)[C@H](O)[C@@H]1O` (stereo partly shown) [compound 17, Fucα1,3(Galβ1,4)Glc], the “binding of AA” value [3] was “strongly bound”.

For `CC(=O)N[C@H]1[C@H]([C@H](O)[C@H](O)CO)O[C@@](O[C@H]2[C@@H](O)[C@@H](CO)O[C@@H](O[C@H]3[C@H](O)[C@@H](NC(C)=O)C(O)O[C@@H]3CO)[C@@H]2O)(C(=O)O)C[C@@H]1O` (stereo partly shown) [compound 18, NeuNAcα2,3Galβ1,4GlcNAc], the “binding of TV” value [2] was “weakly bound”.

In the case of `CC(=O)N[C@H]1[C@H]([C@H](O)[C@H](O)CO)O[C@@](O[C@H]2[C@@H](O)[C@@H](CO)O[C@@H](O[C@H]3[C@H](O[C@@H]4O[C@@H](C)[C@@H](O)[C@@H](O)[C@@H]4O)[C@@H](NC(C)=O)C(O)O[C@@H]3CO)[C@@H]2O)(C(=O)O)C[C@@H]1O` (stereo partly shown) [compound 19, Sialyl Le^x], the “binding of TV” value [2] is reported as “less strongly”, the “binding of AA” value [3] is reported as “very weakly bound” and the “recognition by anti-sialyl Le^x antibody (fluorescence image of the chip)” value [4] is reported as “selectively recognized”.

`CC(=O)N[C@H]1[C@H](O[C@H]2[C@@H](O)[C@@H](CO)O[C@@H](O[C@H]3[C@H](O)[C@@H](O)C(O)O[C@@H]3CO)[C@@H]2O)O[C@H](CO)[C@@H](O[C@@H]2O[C@@H](C)[C@@H](O)[C@@H](O)[C@@H]2O)[C@@H]1O[C@@H]1O[C@H](CO)[C@H](O)[C@H](O)[C@H]1O[C@@H]1O[C@@H](C)[C@@H](O)[C@@H](O)[C@@H]1O` (stereo partly shown) [compound 20, Fucα1,2Galβ1,3(Fucα1,4)GlcNAcβ1,3Galβ1,4Glc] was tested, and the “binding of AA” value [3] was “strongly bound”.

With Galβ1,4GlcNac [compound 15] the “binding of TV” value [2] was “weakly bound”.

Mannan [compound 21] was tested, and the “binding of ConA” value [1] was “strong binding” and the “binding of E. coli ORN178 to carbohydrate spots” value [5] was “binds”.

Manα1,6Man [compound 16] was tested, and the “binding of ConA” value [1] was “less strong binding” and the “binding of E. coli ORN178 to carbohydrate spots” value [5] was “binds”.
